ChEMBL document CHEMBL3621142, “Discovery and Evaluation of Clinical Candidate AZD3759, a Potent, Oral Active, Central Nervous System-Penetrant, Epidermal Growth Factor Receptor Tyrosine Kinase Inhibitor” (J Med Chem, 2015)

Experiments:
MDR1 (P-gp) = assay: Efflux ratio of permeability from basolateral to apical side over apical to basolateral side in MDCK2-MDR1 cells; type: ADME, cell-based, Canis lupus familiaris; conditions: dog, MDCK-MDR1
[1] = Fraction unbound in Han Wistar rat blood at 5 uM by equilibrium dialysis method; type: ADME, tissue-based; conditions: Han Wistar
[2] = Fraction unbound in Han Wistar rat brain at 5 uM by equilibrium dialysis method; type: ADME, tissue-based; conditions: Han Wistar, brain
[3] = target: Epidermal growth factor receptor (Homo sapiens, UniProt P00533, L858R); type: cell-based, H3255
[4] = AUC (0 to 7 hrs) in Han Wistar rat brain at 2 mg/kg, po by LC-MS/MS analysis; type: ADME, organism-based; set-up: dose 2 mg/kg, time < 7 hr, route oral; conditions: Han Wistar, brain
[5] = AUC (0 to 7 hrs) in Han Wistar rat CSF at 2 mg/kg, po by LC-MS/MS analysis; type: ADME, organism-based, Cerebrospinal fluid; set-up: time < 7 hr, dose 2 mg/kg, route oral; conditions: Han Wistar, CSF
[6] = AUC (0 to 7 hrs) in Han Wistar rat blood at 2 mg/kg, po by LC-MS/MS analysis; type: ADME, organism-based; set-up: dose 2 mg/kg, time < 7 hr, route oral; conditions: Han Wistar, blood
[7] = Ratio of unbound AUC (0 to 7 hrs) in brain to blood of Han Wistar rat at 2 mg/kg, po by LC-MS/MS analysis; type: ADME, organism-based; conditions: Han Wistar, brain and blood, read-out: K(p,uu,brain)
[8] = Ratio of unbound AUC (0 to 7 hrs) in CSF to blood of Han Wistar rat at 2 mg/kg, po by LC-MS/MS analysis; type: ADME, organism-based; conditions: Han Wistar, CSF and blood
[9] = AUC(0 to 24 hrs) in Han Wistar rat at 5 mg/kg, po; type: ADME, organism-based; set-up: dose 5 mg/kg, time < 24 hr, route oral; conditions: in vivo
[10] = Tmax in Han Wistar rat at 5 mg/kg, po; type: ADME, organism-based; conditions: in vivo
[11] = Cmax in Han Wistar rat at 5 mg/kg, po; type: ADME, organism-based; set-up: dose 5 mg/kg, route oral; conditions: in vivo
[12] = AUC(0 to 24 hrs) in Han Wistar rat at 1 mg/kg, iv; type: ADME, organism-based; set-up: time < 24 hr, dose 1 mg/kg, route intravenous; conditions: in vivo
[13] = Elimination half life in Han Wistar rat at 1 mg/kg, iv; type: ADME, organism-based; conditions: Han Wistar, in vivo, read-out: beta t1/2 (converted)
[14] = Clearance in Han Wistar rat at 1 mg/kg, iv; type: ADME, organism-based; conditions: in vivo
[15] = Volume of distribution at steady state in Han Wistar rat at 1 mg/kg, iv; type: ADME, organism-based; conditions: Han Wistar, in vivo, read-out: Vdss
[16] = Oral bioavailability in Han Wistar rat at 5 mg/kg; type: ADME, organism-based; conditions: in vivo
[17] = Drug metabolism in rat hepatocytes assessed as piperazine oxidation; type: ADME, cell-based, Hepatocyte
[18] = Permeability from apical to basolateral side in MDCK2-MDR1 cells; type: ADME, cell-based, Canis lupus familiaris, MDCK-II; conditions: dog, MDCK-MDR1

Epidermal growth factor receptor, sequence (P00533 25-1210 L858R limits assumed): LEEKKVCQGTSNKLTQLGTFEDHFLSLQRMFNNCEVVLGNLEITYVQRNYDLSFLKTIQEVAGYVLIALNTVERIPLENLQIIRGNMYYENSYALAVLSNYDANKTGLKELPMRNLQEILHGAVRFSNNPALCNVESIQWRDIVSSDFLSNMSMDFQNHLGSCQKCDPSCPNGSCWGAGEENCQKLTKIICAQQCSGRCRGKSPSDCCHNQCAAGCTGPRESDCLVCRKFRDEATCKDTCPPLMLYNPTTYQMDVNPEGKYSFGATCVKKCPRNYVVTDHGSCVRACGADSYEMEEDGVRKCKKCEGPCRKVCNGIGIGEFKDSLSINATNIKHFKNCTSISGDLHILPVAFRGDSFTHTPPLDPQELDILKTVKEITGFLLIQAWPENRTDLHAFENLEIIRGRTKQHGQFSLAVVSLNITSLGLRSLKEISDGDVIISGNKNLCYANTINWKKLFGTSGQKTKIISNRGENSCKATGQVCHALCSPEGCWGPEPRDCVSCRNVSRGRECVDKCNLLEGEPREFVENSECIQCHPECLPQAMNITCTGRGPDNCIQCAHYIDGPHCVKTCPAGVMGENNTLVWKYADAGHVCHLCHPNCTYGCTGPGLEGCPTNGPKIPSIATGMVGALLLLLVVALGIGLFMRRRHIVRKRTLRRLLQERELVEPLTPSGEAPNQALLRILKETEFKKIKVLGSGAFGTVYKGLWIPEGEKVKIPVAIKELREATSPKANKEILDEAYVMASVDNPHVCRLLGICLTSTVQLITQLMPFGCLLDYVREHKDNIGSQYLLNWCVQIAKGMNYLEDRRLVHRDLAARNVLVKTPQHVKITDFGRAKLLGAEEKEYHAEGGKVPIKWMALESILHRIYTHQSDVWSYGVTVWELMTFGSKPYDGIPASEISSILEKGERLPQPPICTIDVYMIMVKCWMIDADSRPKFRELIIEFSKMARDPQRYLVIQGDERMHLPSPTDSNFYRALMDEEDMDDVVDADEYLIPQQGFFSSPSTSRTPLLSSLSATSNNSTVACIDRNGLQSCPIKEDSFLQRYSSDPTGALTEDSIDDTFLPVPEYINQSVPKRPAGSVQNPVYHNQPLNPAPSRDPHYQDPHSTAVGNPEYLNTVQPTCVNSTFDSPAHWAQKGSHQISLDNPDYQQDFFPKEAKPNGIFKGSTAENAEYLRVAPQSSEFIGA

COc1cc2ncnc(Nc3cccc(Cl)c3F)c2cc1OC(=O)N1CCN(C)CC1
efflux ratio (MDR1 (P-gp)): 0.37
fraction unbound at 5 µM [1]: 0.084
fraction unbound at 5 µM [2]: 0.025
IC50 [3]: 5 nM
AUC(0-t) at 7 h [4]: 0.825 µM·h
AUC(0-t) at 7 h [5]: 0.031 µM·h
AUC(0-t) at 7 h [6]: 0.722 µM·h
Kp uu [7]: 0.34
Kp uu [8]: 0.52
AUC(0-t) at 24 h [9]: 3.91 µM·h
Tmax [10]: 0.25 h
Cmax [11]: 2020 nM
AUC(0-t) at 24 h [12]: 1.71 µM·h
half-life [13]: 2.6 h
clearance [14]: 22 mL/min/kg
Vd [15]: 1.8 L/kg
bioavailability [16]: 45%
Drug metabolism [17]: metabolite_detected
Papp A→B [18]: 28 ×10⁻⁶ cm/s
